From patent publication US20190336555A1, “SYNERGISTIC DIETARY SUPPLEMENT COMPOSITIONS FOR IMPROVING BRAIN HEALTH” (LAILA NUTRACEUTICALS, priority 2016, published 2019)
Structures can show the parent of a compound that is named as a salt.

Test system: scopolamine induced memory impairment in Sprague Dawley rats
Assay: Scopolamine induced memory impairment model, Morris Water Maze
Format: in vivo
Settings: oral, 4 days; LN16026F3 100 mg/kg, Donepezil 10 mg/kg; vs Scopolamine group
Method: Twenty four healthy male Sprague Dawley rats were randomized in to four groups. Animals of groups 1 and 2 were treated daily with vehicle (0.5% sodium CMC in water); group 3 with LN16026F3 (100 mg/kg) and group 4 with Donepezil Hydrochloride Monohydrate (10 mg/kg). Dementia was induced by injecting Scopolamine Hydrobromide (0.2 mg/kg) subcutaneously to G2, G3 & G4 groups. G1 group received only 1 mL/kg of normal saline (0.9% w/v sodium chloride) via subcutaneous route.
The experiment consists of 4 days of acquisition trials and one probe trial on day 5 i.e. the day after the completion of acquisition trails. Rats were allowed to swim for 120 seconds of 4 trials per day during acquisition trial in water maze to find the hidden platform. Each rat received 4 days of acquisition trials and one probe trial of 180 seconds on day 5. The movement of the animals was tracked by the SMART video tracking system. Memory retention was assessed on day 5 in which each animal received a single 180 seconds probe trial without platform in the pool. Dopamine levels were measured in tissue from hippocampal region of the brain using Elisa kit.

COc1cc2c(cc1OC)C(=O)C(CC1CCN(Cc3ccccc3)CC1)C2 (stereo not shown) [Donepezil, Donepezil Hydrochloride Monohydrate]
Target latency, Acquisition Trial: reduction in target latency
